Measured values: patent US20080057529A1, “Method for Identifying Histone Deacetylase Inhibitors” (priority 2003, published 2008)
Like-named read-outs stand apart in the source and are kept apart here.

Tests used:
[1] = system: endogenous p21; experiment: Induction of endogenous p21 in HeLa cells, immunoblot; format: cell-based, human; settings: 13 hour treatment, immunoblot densitometry, read-out: Endogenous p2 EC50
Protocol: Induction of endogenous p21 and acetylation of core histones (inhibition of HDAC activity) was as follows. Dose-response experiments were performed in HeLa cells with different classes of known HDAC inhibitors. […] An α-tubulin-specific antibody (Sigma, St. Louis, Mo.; catalog number: T9026) was used as an internal standard. Quantitative data were obtained by densitometric analysis of X-ray films and were normalized for the internal standard values.

[2] = system: CMV promoter; experiment: Luc activity of co-transfected pCMV-Luc control plasmid in HeLa cells; format: cell-based, human; settings: for Fold Ind. RLU: vs DMSO; for RLU norm mean / RLU/μg: Table 5; for RLU/μg: luciferase control plasmid not named
[3] = system: clone 1.17 cells; experiment: Growth inhibition, CYTOSTAR 14C-thymidine uptake; format: cell-based; settings: Homo sapiens, 48 h, read-out: ^14C-thymidine EC50
Protocol: Cells were seeded in a CYTOSTAR-T plate at about 7000 to 10000 cells per well in 100 μL of complete DMEM and incubated 4 hours at 37° C., 5% CO2. Next, 25 μL per well of HDAC inhibitor or DMSO (vehicle control) 5× solutions in complete DMEM was added to the wells along with 5 μL per well of ^14C-thymidine diluted 1:3 in H2O (1.65 μL of thymidine per well, 55 mCi/mmol; 225 μCi/mg; 50 μCi/mL (10 μM final concentration) and incubated at 37° C., 5% CO2. Incorporation of ^14C-thymidine was monitored after 24, 48, and 72 hours by reading the plate in a Packard Instruments TOP-COUNT (CYTOSTAR ^14C method).

[4] = system: HeLa cells; settings: saturating amounts, after 48 hours; cited from earlier work
[5] = system: RSV promoter; experiment: Luc activity of co-transfected pRSV-Luc control plasmid in HeLa cells; format: cell-based, human; settings: Table 2, 400 nM, 12 hours
Protocol: (§1) The p21m-BLA reporter plasmid was tested in transient transfection experiments of HeLa cells to evaluate the responsiveness of the minimal p21 promoter and the Bla reporter system to known HDAC inhibitors. In the first two transfection experiments, HeLa cells were transfected with 1 or 2 μg of Bla reporter plasmid containing either p21 minimal promoter (p21m-BLA) or CMV promoter (CMV-BLA) and 0.1 μg of pCMV-Luc or pRSV-Luc control plasmids. Different DNA-FUGENE transfection reagent ratios were tested (FUGENE is available from Roche Applied Science, Indianapolis, Ind.). […] Data are summarized below in Tables 1 and 2.

[6] = system: CMV promoter; experiment: Luc activity of co-transfected pCMV-Luc control plasmid in HeLa cells; format: cell-based, human; settings: 400 nM, 12 hours
Protocol: as §1

[7] = Table 3, 2 μg p21m-BLA + 0.1 μg pCMV-Luc, 6 hr treatment, TSA 300 nM, Apicidin 1 μM
[8] = Table 3, 2 μg p21m-BLA + 0.1 μg pCMV-Luc, 12 hr treatment, TSA 300 nM, Apicidin 1 μM
[9] = Table 3, 2 μg p21m-BLA + 0.1 μg pCMV-Luc, 24 hr treatment, TSA 300 nM, Apicidin 1 μM
[10] = Table 3, 2 μg pCMV-BLA + 0.1 μg pCMV-Luc, 6 hr treatment, TSA 300 nM, Apicidin 1 μM
[11] = Table 3, 2 μg pCMV-BLA + 0.1 μg pCMV-Luc, 12 hr treatment, TSA 300 nM, Apicidin 1 μM
[12] = Table 3, 2 μg pCMV-BLA + 0.1 μg pCMV-Luc, 24 hr treatment, TSA 300 nM, Apicidin 1 μM
[13] = Apicidin 1 μM, TSA 300 nM, P21m-SEAP 0 μg DNA
[14] = Apicidin 1 μM, TSA 300 nM, P21m-SEAP 0.1 μg DNA
[15] = Apicidin 1 μM, TSA 300 nM, P21m-SEAP 0.2 μg DNA
[16] = Apicidin 1 μM, TSA 300 nM, P21m-SEAP 0.5 μg DNA
[17] = Apicidin 1 μM, TSA 300 nM, P21m-SEAP 1 μg DNA
[18] = Apicidin 1 μM, TSA 300 nM, P21m-SEAP 2 μg DNA

Row | SMILES | RLU/mg [2, 7] [RLU/mg] | RLU/mg [2, 8] [RLU/mg] | RLU/mg [2, 9] [RLU/mg] | RLU/mg [2, 10] [RLU/mg] | RLU/mg [2, 11] [RLU/mg] | RLU/mg [2, 12] [RLU/mg] | RLU norm mean [2, 13] | RLU/μg [2, 13] | RLU norm mean [2, 14] | RLU/μg [2, 14] | RLU/μg [2, 15] | RLU norm mean [2, 16] | RLU/μg [2, 16] | RLU norm mean [2, 17] | RLU/μg [2, 17] | RLU/μg [2, 18] | further results
1 | CCC(=O)CCCCC[C@@H]1NC(=O)[C@H]2CCCCN2C(=O)[C@H]([C@@H](C)CC)NC(=O)[C@H](Cc2cn(OC)c3ccccc23)NC1=O [Apicidin] | 79723 | 183519 | 131733 | 10937 | 39603.5 | 18932.5 | 1.08 | 102,236.00 RLU/μg | 1.17 | 111,192.67 RLU/μg | 108,052.99 RLU/μg | 0.57 | 54,363.72 RLU/μg | 1.14 | 108,153.75 RLU/μg | 85,172.59 RLU/μg | EC50 ([1]; Homo sapiens): 70 nM; Fold Ind. RLU ([2]; Table 3, 2 μg p21m-BLA + 0.1 μg pCMV-Luc, 6 hr, TSA 300 nM, Apicidin 1 μM): 3.6 fold; Fold Ind. RLU ([2]; Table 3, 2 μg p21m-BLA + 0.1 μg pCMV-Luc, 12 hr, TSA 300 nM, Apicidin 1 μM): 2.45 fold; Fold Ind. RLU ([2]; Table 3, 2 μg p21m-BLA + 0.1 μg pCMV-Luc, 24 hr, TSA 300 nM, Apicidin 1 μM): 2.9 fold; Fold Ind. RLU ([2]; Table 3, 2 μg pCMV-BLA + 0.1 μg pCMV-Luc, 6 hr, TSA 300 nM, Apicidin 1 μM): 2 fold; Fold Ind. RLU ([2]; Table 3, 2 μg pCMV-BLA + 0.1 μg pCMV-Luc, 12 hr, TSA 300 nM, Apicidin 1 μM): 3.6 fold; Fold Ind. RLU ([2]; Table 3, 2 μg pCMV-BLA + 0.1 μg pCMV-Luc, 24 hr, TSA 300 nM, Apicidin 1 μM): 5.3 fold; RLU norm mean [2, 15]: 1.14; RLU norm mean [2, 18]: 0.90; EC50 [3]: 410 nM
2 | CC(/C=C/C(=O)NO)=C\[C@@H](C)C(=O)c1ccc(N(C)C)cc1 [TSA, Trichostatin A] | 85379 | 248656.9 | 110180.6 | 12579.8 | 33592.3 | 22233.7 | 0.97 | 94,973.90 RLU/μg | 0.97 | 95,526.00 RLU/μg | 116,091.50 RLU/μg | 0.85 | 83,237.58 RLU/μg | 0.89 | 87,194.70 RLU/μg | 111,592.45 RLU/μg | remission from cell cycle arrest [4]: complete remission from cell cycle arrest; EC50 [1]: 190 nM; RLU/mg ([2]; Table 1, 400 nM, 12 hours, 2 μg CMV-BLA + 6 μL F, control plasmid not given): 14934 RLU/mg; RLU/mg ([2]; Table 1, 400 nM, 12 hours, 2 μg p21m-BLA + 6 μL F, control plasmid not given): 50773.9 RLU/mg; RLU/mg ([2]; Table 1, 400 nM, 12 hours, 2 μg p21m-BLA + 10 μL F, control plasmid not given): 22499.2 RLU/mg; RLU/mg ([2]; Table 2, 400 nM, 12 hours, 1 μg CMV-BLA + 3 μL F + CMV-luc): 14928.8 RLU/mg; RLU/mg ([2]; Table 2, 400 nM, 12 hours, 1 μg p21m-BLA + 3 μL F + CMV-luc): 47709.8 RLU/mg; RLU/mg ([5]; 1 μg CMV-BLA + 3 μL F + RSV-luc): 7964.46 RLU/mg; RLU/mg ([5]; 1 μg p21m-BLA + 3 μL F + RSV-luc): 24437.8 RLU/mg; RLU/mg ([5]; 2 μg CMV-BLA + 6 μL F + RSV-luc): 4972 RLU/mg; RLU/mg ([5]; 2 μg p21m-BLA + 6 μL F + RSV-luc): 29989.4 RLU/mg; RLU/mg ([6]; Table 1, 1 μg CMV-BLA + 3 μL F, control plasmid not given): 8986 RLU/mg; RLU/mg ([6]; Table 1, 1 μg p21m-BLA + 3 μL F, control plasmid pCMV-Luc or pRSV-Luc, not specified): 52035 RLU/mg; RLU/mg ([6]; Table 1, 1 μg p21m-BLA + 5 μL F, control plasmid not given): 29022.4 RLU/mg; RLU/mg ([6]; Table 2, 2 μg CMV-BLA + 6 μL F + CMV-luc): 13085.6 RLU/mg; RLU/mg ([6]; Table 2, 2 μg p21BLA + 6 μL F + CMV-luc): 105942 RLU/mg
